According to patent US5834472A (Schering Corporation, priority 1997, dated 1998):

Columns and labels:
water solubility = format: physicochemical
Aspergillis = settings: aqueous suspensions; cited from earlier work
Candida = settings: aqueous suspensions; cited from earlier work
Cryptococcus = settings: aqueous suspensions; cited from earlier work

SMILES: CCC(C(C)O)n1ncn(-c2ccc(N3CCN(c4ccc(OCC5COC(Cn6cncn6)(c6ccc(F)cc6F)C5)cc4)CC3)cc2)c1=O (single isomer, unassigned; (-)) [antifungal compound]
- water solubility (water solubility): extremely low water solubility
- antifungal activity against Aspergillis (Aspergillis): potent antifungal activity
- antifungal activity against Candida (Candida): potent antifungal activity
- antifungal activity against Cryptococcus (Cryptococcus): potent antifungal activity
